# Assay results as given in paper PMC10647589, “Heterogeneous Cellular Response of Primary and Metastatic Human Gastric Adenocarcinoma Cell Lines to Magnoflorine and Its Additive Interaction with Docetaxel” (International Journal of Molecular Sciences, 2023).
# What was measured:
# Experiment in all cases: MTT assay (viability; isobolographic analysis)
# Type in all cases: cell-based
# ACC-201 human GC cells = conditions: ACC-201, 72 h incubation, mean ± SEM
# Procedure: (§1) The human GC cells ACC-201, AGS, MKN-74 and NCI-N87 were placed in 96-well plates and allowed to adhere overnight. On the following day, the growth medium was removed, and the cells were treated with a series of tested MGN and DCT dilutions (2.0–75 and 0.0004–0.0404 µg/mL, respectively) for 72 h at 37 °C. […] Subsequently, a solution of MTT (5 mg/mL) was added to each well, and the cells were further incubated for 3 h at 37 °C. Tetrazolium salt was reduced to violet formazan derivatives via the succinate dehydrogenase of metabolically active cells. Insoluble formazan compounds formed inside the cells were extracted with a sodium dodecyl sulfate buffer (10% SDS in 0.01 N HCl) overnight to achieve a quantitative assessment of the amount produced. The absorbance of the samples was measured at 570 nm using Infinite M200 Pro microplate reader (Tecan, Männedorf, Switzerland). Cell viability was presented as a percentage relative to the untreated control cells.
# (§2) Interactions between MGN and DCT analyzed after 72 h in four different GC cell lines (ACC-201, AGS, MKN-74 and NCI-N87) were characterized by means of an isobolographic analysis in the MTT assay. The percentage inhibition of cell viability accompanied by the specific concentrations of the tested substances (MGN and DCT) were transferred to the MS Excel spreadsheet, and the data were computed using the log–probit method. Next, the concentration–response effect graphs for the tested drugs (MGN and DCT) were drawn, and the IC50 values for every tested drug were calculated. The cooperative effect of two concentration–response lines was tested for the MGN and DCT combination, as previously described. The calculations of IC50 values (±SEM) were computed with formulas originally derived from the log–probit method and adapted to the in vitro conditions, as described earlier. The concentration–response lines for MGN and DCT were not parallel, and thus, the isobolographic additivity was illustrated graphically as an area bounded by two (upper and lower) lines of additivity. From the experimentally denoted IC50 values for MGN and DCT in the MTT assay, median additive inhibitory concentrations (IC50add) for the mixture (at the fixed ratio of 1:1 of MGN and DCT) in various cell lines (ACC-201, AGS, MKN-74 and NCI-N87) were calculated, as described previously. More information on isobolographic analysis can be found in the literature.
# AGS human GC cells = conditions: 72 h incubation, mean ± SEM
# Procedure: as §1, §2
# MKN-74 human GC cells = conditions: MKN-74, 72 h incubation, mean ± SEM
# Procedure: as §1, §2
# NCI-N87 human GC cells = conditions: NCI-N87, 72 h incubation, mean ± SEM
# Procedure: as §1, §2
smiles,measurement,setting,value
"CC(=O)O[C@@]12CO[C@@H]1C[C@H](O)[C@@]1(C)C(=O)[C@H](O)C3=C(C)[C@@H](OC(=O)[C@H](O)[C@@H](NC(=O)OC(C)(C)C)c4ccccc4)C[C@@](O)([C@@H](OC(=O)c4ccccc4)[C@H]21)C3(C)C [DCT, docetaxel]",IC50,ACC-201 human GC cells,2.8 ± 0.9 ng/mL
same,IC50,AGS human GC cells,2.6 ± 1.2 ng/mL
same,IC50,MKN-74 human GC cells,4.9 ± 2.1 ng/mL
same,IC50,NCI-N87 human GC cells,9 ± 2.9 ng/mL
